How the values were obtained:
[1] = biological target: Glutamate receptor ionotropic, NMDA 1 (Rattus norvegicus, UniProt P35439); assay: Inhibition of the binding of [3H]L-689,560 ([3H]-4) to the strychnine-insensitive glycine site on rat brain membranes; type: cell membranes, Membrane
[2] = system: Mus musculus; assay: Protection from audiogenic seizure in the DBA/2 mouse 30 min after intraperitoneal administration; type: functional; settings: ip, 0.5 h
[3] = organism: Rattus norvegicus; assay: Blockade of NMDA-induced depolarizations on rat cortical slices; type: functional
[4] = system: Mus musculus; assay: Protection from audiogenic seizure in the DBA/2 mouse 30 min after oral administration; type: functional; settings: 0.5 h
[5] = system: Mus musculus; assay: Protection from audiogenic seizure in the DBA/2 mouse 10 min after intraperitoneal administration; type: functional; settings: ip

IC50 [1]	Compound	ED50 [2]	Kb [3]	ED50 [4]	ED50 [5]
0.0023 µM	Oc1nc2cc(Cl)ccc2c(O)c1-c1cccc(Cc2ccsc2)c1	1.5 mg/kg	0.019 µM	5.1 mg/kg	
0.0045 µM	COc1ccc(Cc2cccc(-c3c(O)c4ccc(Cl)cc4[nH]c3=O)c2)cc1	0.7 mg/kg	0.025 µM	0.9 mg/kg	
0.17 µM	O=c1[nH]c2cc(Cl)ccc2c(O)c1-c1ccccc1	4.5 mg/kg	0.88 µM	7.6 mg/kg	
0.0014 µM	Oc1nc2cc(Cl)ccc2c(O)c1-c1cccc(Oc2ccsc2)c1	0.8 mg/kg	0.005 µM	0.8 mg/kg	

Second part, the compound before the results:

Compound	IC50 [1]	ED50 [2]	Kb [3]	ED50 [4]	ED50 [5]
O=C(O)c1cc(O)c2c(I)cc(Cl)cc2n1	0.014 µM	> 250 mg/kg	0.41 µM		
O=C(Nc1ccccc1)N[C@H]1C[C@H](C(=O)O)Nc2cc(Cl)cc(Cl)c21	0.004 µM	> 100 mg/kg	0.11 µM		
O=C(O)CCc1c(C(=O)O)[nH]c2cc(Cl)cc(Cl)c12	0.069 µM	> 100 mg/kg	1.32 µM		
COCOc1ccc(Cc2cccc(-c3c(O)nc4cc(Cl)ccc4c3O)c2)cc1	0.0022 µM	0.5 mg/kg	0.0032 µM	0.9 mg/kg	
O=c1[nH]c2cc(Cl)ccc2c(O)c1-c1cccc(Oc2ccccc2)c1	0.002 µM	0.9 mg/kg	0.028 µM	0.9 mg/kg	
Oc1nc2cc(Cl)ccc2c(O)c1-c1cccc(Cc2ccccc2)c1			0.087 µM	3.9 mg/kg	1.3 mg/kg
